The term IC50 denotes the concentration at which inhibition is half-maximal. Lower therefore signals higher potency.

LFA-1 binding to ICAM-1, sequence (P20701 26-1170): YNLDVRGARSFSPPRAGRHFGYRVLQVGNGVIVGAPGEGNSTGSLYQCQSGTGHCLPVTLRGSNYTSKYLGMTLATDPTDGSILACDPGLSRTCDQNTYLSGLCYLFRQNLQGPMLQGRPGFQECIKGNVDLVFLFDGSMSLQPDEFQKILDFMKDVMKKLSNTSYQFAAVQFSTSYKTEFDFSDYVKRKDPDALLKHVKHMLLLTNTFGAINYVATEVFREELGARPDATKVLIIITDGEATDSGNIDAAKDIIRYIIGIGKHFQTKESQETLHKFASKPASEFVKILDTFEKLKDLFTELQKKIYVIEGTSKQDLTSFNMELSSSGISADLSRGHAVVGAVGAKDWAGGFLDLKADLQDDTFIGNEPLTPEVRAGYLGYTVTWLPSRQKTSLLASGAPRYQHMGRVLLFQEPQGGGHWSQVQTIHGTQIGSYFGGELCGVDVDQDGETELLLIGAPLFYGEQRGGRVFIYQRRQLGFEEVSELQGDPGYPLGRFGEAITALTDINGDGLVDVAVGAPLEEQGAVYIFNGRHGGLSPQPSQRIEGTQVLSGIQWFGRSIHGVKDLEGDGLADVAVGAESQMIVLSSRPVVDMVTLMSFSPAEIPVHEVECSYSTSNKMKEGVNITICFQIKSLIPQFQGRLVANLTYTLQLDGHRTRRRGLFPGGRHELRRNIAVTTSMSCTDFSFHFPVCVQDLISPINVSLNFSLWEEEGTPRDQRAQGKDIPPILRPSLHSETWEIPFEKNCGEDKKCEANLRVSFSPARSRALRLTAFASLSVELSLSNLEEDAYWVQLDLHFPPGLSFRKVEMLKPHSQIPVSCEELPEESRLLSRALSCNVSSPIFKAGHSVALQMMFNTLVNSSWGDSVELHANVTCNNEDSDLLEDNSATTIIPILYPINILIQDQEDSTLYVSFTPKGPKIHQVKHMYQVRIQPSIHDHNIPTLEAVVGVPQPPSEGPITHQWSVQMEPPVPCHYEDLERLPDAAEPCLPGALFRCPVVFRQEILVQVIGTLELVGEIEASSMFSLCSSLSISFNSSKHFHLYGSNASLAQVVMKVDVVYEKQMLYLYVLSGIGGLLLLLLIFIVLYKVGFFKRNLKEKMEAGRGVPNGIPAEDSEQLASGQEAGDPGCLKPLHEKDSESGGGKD
LFA-1 binding to ICAM-1, sequence (P05107 23-769): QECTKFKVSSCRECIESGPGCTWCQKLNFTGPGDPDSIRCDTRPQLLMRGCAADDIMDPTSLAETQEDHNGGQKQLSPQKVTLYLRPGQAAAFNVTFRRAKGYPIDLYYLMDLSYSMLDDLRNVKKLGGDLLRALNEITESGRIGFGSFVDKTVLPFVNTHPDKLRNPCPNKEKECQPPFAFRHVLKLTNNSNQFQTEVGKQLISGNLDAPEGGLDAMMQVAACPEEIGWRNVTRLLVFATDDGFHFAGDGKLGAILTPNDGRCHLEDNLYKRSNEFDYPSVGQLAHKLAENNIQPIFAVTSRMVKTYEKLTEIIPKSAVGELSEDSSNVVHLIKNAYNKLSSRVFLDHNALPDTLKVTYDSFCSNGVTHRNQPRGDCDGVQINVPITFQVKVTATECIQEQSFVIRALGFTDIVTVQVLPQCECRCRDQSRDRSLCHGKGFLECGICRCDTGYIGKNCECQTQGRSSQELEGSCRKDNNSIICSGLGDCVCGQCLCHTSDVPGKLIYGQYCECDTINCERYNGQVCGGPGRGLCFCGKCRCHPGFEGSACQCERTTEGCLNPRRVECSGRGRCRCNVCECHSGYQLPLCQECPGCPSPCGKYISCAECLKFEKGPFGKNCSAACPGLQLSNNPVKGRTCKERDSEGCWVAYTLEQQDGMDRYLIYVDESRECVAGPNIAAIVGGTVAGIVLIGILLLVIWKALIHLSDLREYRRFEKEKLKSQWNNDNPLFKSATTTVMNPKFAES

This assay addresses LFA-1 binding to ICAM-1 (Homo sapiens, UniProt P05107+P20701). The assay is described as follows: Inhibition of LFA-1 binding to ICAM-1 (LFA-1/Biotin-sICAM-1 AlphaScreen molecular assay). Particulars: highest compound concentration 1 μM in 1% DMSO, 37° C., 90 minutes. The method in brief:
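AlphaScreen binding of purified LFA-1 to biotinylated sICAM-1 in DPBS with Ca/Mg, 2 mM MgCl2, 0.1% BSA, pH 7.1; compound top concentration 1 μM in 1% DMSO, 90 min at 37 °C. Detection with TS2/4 anti-LFA-1 acceptor beads (10 μg/mL final) and streptavidin donor beads (15 μg/mL final), room temperature in the dark.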
Background: Bead proximity is the source of the signal in Alpha formats.
`C[C@@]1(Cc2ccc(C#N)cc2)C(=O)N(c2cc(Cl)cc(Cl)c2)c2ncc(C(=O)NC3(C(=O)NC4(c5ccc(C(=O)N6CCC(C(N)=O)CC6)cn5)CC4)CC3)n21` [compound 147] displayed an IC50 of 1.9 nM.
Turning to `C[C@@]1(Cc2ccc(C#N)cc2)C(=O)N(c2cc(Cl)cc(Cl)c2)c2ncc(C(=O)NC3(C(=O)NC4(c5ccc(C(N)=O)cn5)CC4)CC3)n21` [compound 148], the IC50 worked out at 1.4 nM.
The result for `CC(NC(=O)c1ccnc(C2(NC(=O)C3(NC(=O)c4cnc5n4[C@](C)(Cc4ccc(C#N)cc4)C(=O)N5c4cc(Cl)cc(Cl)c4)CC3)CC2)c1)c1ccccn1` (some centres unmarked) [compound 149] reads 0.29 nM; that for `CC(CO)NC(=O)c1cccc(C2(NC(=O)C3(NC(=O)c4cnc5n4[C@](C)(Cc4ccc(C#N)cc4)C(=O)N5c4cc(Cl)cc(Cl)c4)CC3)CC2)n1` (some centres unmarked) [compound 150], 0.81 nM; that for `CC(NC(=O)c1cccc(C2(NC(=O)C3(NC(=O)c4cnc5n4[C@](C)(Cc4ccc(C#N)cc4)C(=O)N5c4cc(Cl)cc(Cl)c4)CC3)CC2)n1)c1ccncc1` (some centres unmarked) [compound 151], 1.3 nM.
`CC(C)(NC(=O)c1ccc(C2(NC(=O)C3(NC(=O)c4cnc5n4[C@](C)(Cc4ccc(C#N)cc4)C(=O)N5c4cc(Cl)cc(Cl)c4)CC3)CC2)nc1)c1ccccc1` [compound 152]: the IC50 was 0.62 nM.
The result for `C[C@@]1(Cc2ccc(C#N)cc2)C(=O)N(c2cc(Cl)cc(Cl)c2)c2ncc(C(=O)NC3(C(=O)NC4(c5ccc(C(=O)N6CCN(S(C)(=O)=O)CC6)cn5)CC4)CC3)n21` [compound 153] reads 1.5 nM; that for `CN(CCO)C(=O)c1ccc(C2(NC(=O)C3(NC(=O)c4cnc5n4[C@](C)(Cc4ccc(C#N)cc4)C(=O)N5c4cc(Cl)cc(Cl)c4)CC3)CC2)nc1` [compound 154], 1 nM; that for `CC(NC(=O)c1ccc(C2(NC(=O)C3(NC(=O)c4cnc5n4[C@](C)(Cc4ccc(C#N)cc4)C(=O)N5c4cc(Cl)cc(Cl)c4)CC3)CC2)nc1)c1ccccn1` (some centres unmarked) [compound 155], 0.74 nM.
Next, `CN1CCN(C(=O)c2ccnc(C3(NC(=O)C4(NC(=O)c5cnc6n5[C@](C)(Cc5ccc(C#N)cc5)C(=O)N6c5cc(Cl)cc(Cl)c5)CC4)CC3)c2)CC1` [compound 156]: 1.1 nM; `CN1CCN(C(=O)c2cccc(C3(NC(=O)C4(NC(=O)c5cnc6n5[C@](C)(Cc5ccc(C#N)cc5)C(=O)N6c5cc(Cl)cc(Cl)c5)CC4)CC3)n2)CC1` [compound 157]: 0.52 nM.
For the compound `CC(=O)NC1CCN(C(=O)c2ccc(C3(NC(=O)C4(NC(=O)c5cnc6n5[C@](C)(Cc5ccc(C#N)cc5)C(=O)N6c5cc(Cl)cc(Cl)c5)CC4)CC3)nc2)C1` (some centres unmarked) [compound 158], the IC50 was 0.9 nM.
Next, `C[C@@]1(Cc2ccc(C#N)cc2)C(=O)N(c2cc(Cl)cc(Cl)c2)c2ncc(C(=O)NC3(C(=O)NC4(c5cc(C(=O)NCCn6ccnc6)ccn5)CC4)CC3)n21` [compound 159]: 0.42 nM.
`CC(NC(=O)c1ccc(C2(NC(=O)C3(NC(=O)c4cnc5n4[C@](C)(Cc4ccc(C#N)cc4)C(=O)N5c4cc(Cl)cc(Cl)c4)CC3)CC2)nc1)c1ccccn1` (some centres unmarked) [compound 160] returned an IC50 of 0.37 nM.
Next, `C[C@@]1(Cc2ccc(C#N)cc2)C(=O)N(c2cc(Cl)cc(Cl)c2)c2ncc(C(=O)NC3(C(=O)NC4(c5cccc(C(=O)N6CCCC(CO)C6)n5)CC4)CC3)n21` (some centres unmarked) [compound 161]: 0.75 nM.
Take `C[C@@]1(Cc2ccc(C#N)cc2)C(=O)N(c2cc(Cl)cc(Cl)c2)c2ncc(C(=O)NC3(C(=O)NC4(c5cccc(C(=O)NCc6cccnc6)n5)CC4)CC3)n21` [compound 162]: the IC50 was 2.3 nM. Compared with the last compound, the IC50 is about 3.1-fold higher.
Next, `C[C@@]1(Cc2ccc(C#N)cc2)C(=O)N(c2cc(Cl)cc(Cl)c2)c2ncc(C(=O)NC3(C(=O)NC4(c5ccc(C(=O)N6CCC[C@@H]6C(N)=O)cn5)CC4)CC3)n21` [compound 163]: 0.65 nM; `C[C@@]1(Cc2ccc(C#N)cc2)C(=O)N(c2cc(Cl)c(F)c(Cl)c2)c2ncc(C(=O)NC3(C(=O)NC4(c5ccc(C(N)=O)cn5)CC4)CC3)n21` [compound 164]: 0.82 nM; `C[C@H](NC(=O)c1cccc(C2(NC(=O)C3(NC(=O)c4cnc5n4[C@](C)(Cc4ccc(C#N)cc4)C(=O)N5c4cc(Cl)cc(Cl)c4)CC3)CC2)n1)c1ccccc1` [compound 165]: 0.3 nM.
Next, `C[C@@H](NC(=O)c1ccnc(C2(NC(=O)C3(NC(=O)c4cnc5n4[C@](C)(Cc4ccc(C#N)cc4)C(=O)N5c4cc(Cl)cc(Cl)c4)CC3)CC2)c1)C(N)=O` [compound 166]: 3 nM.
The result for `CC(C)(NC(=O)c1cccc(C2(NC(=O)C3(NC(=O)c4cnc5n4[C@](C)(Cc4ccc(C#N)cc4)C(=O)N5c4cc(Cl)cc(Cl)c4)CC3)CC2)n1)c1ccccc1` [compound 167] reads 0.41 nM; that for `C[C@@]1(Cc2ccc(C#N)cc2)C(=O)N(c2cc(Cl)cc(Cl)c2)c2ncc(C(=O)NC3(C(=O)NC4(c5cc(C(=O)N6CC[C@@H](O)C6)ccn5)CC4)CC3)n21` [compound 168], 3.4 nM.
For `C[C@@]1(Cc2ccc(C#N)cc2)C(=O)N(c2cc(Cl)cc(Cl)c2)c2ncc(C(=O)NC3(C(=O)NC4(c5ccc(C(=O)NCCc6ccncc6)cn5)CC4)CC3)n21` [compound 169], the IC50 is 2.5 nM.
In turn, `C[C@@]1(Cc2ccc(C#N)cc2)C(=O)N(c2cc(Cl)cc(Cl)c2)c2ncc(C(=O)NC3(C(=O)NC4(c5cccc(C(=O)N6CCC(C(N)=O)CC6)n5)CC4)CC3)n21` [compound 170] showed an IC50 of 0.28 nM.
Next, `CC(=O)N1CCN(C(=O)c2ccc(C3(NC(=O)C4(NC(=O)c5cnc6n5[C@](C)(Cc5ccc(C#N)cc5)C(=O)N6c5cc(Cl)cc(Cl)c5)CC4)CC3)nc2)CC1` [compound 171]: 1.3 nM; `C[C@@]1(Cc2ccc(C#N)cc2)C(=O)N(c2cc(Cl)cc(Cl)c2)c2ncc(C(=O)NC3(C(=O)NC4(c5cc(C(=O)NCC(N)=O)ccn5)CC4)CC3)n21` [compound 172]: 0.84 nM.

The values above are taken from patent US8481750B2 (Boehringer Ingelheim International GmbH, priority 2009, dated 2013).
